Here are results for one compound from patent publication US20220402961A1 (BONTAC BIO-ENGINEERING(SHENZHEN) CO.,LTD, priority 2021, published 2022).

For the data set the following is noted: screened with a sieve (1.00 mm, No. 18), poured into glass graduated measuring cylinder, apparent volume. On the procedure:
The tops were scraped flat. The apparent volumes were recorded. The bulk densities were calculated.

Regarding `NC(=O)c1ccc[n+]([C@@H]2O[C@H](COP(=O)([O-])O)[C@@H](O)[C@H]2O)c1` [Form 1, nicotinamide mononucleotide anhydrous crystal (form 1)], the Bulk density was 0.15 g/mL.
